ChEMBL document CHEMBL5131514, “Structure and Mechanism-Guided Design of Dual Serine/Metallo-Carbapenemase Inhibitors” (J Med Chem, 2022)
One block for each molecule: values may come before it.

Experiments:
[1] = Inhibition of bacterial beta-lactamase KPC-2 expressed in Escherichia coli BL21 (DE3) assessed as inhibition constant using nitrocefin as substrate by microplate reader analysis; set-up: species or system Bacteria
[2] = Inhibition of bacterial beta-lactamase NDM-1 (42 to 270 residues) expressed in Escherichia coli BL21 (DE3) assessed as inhibition constant using nitrocefin as substrate by microplate reader analysis; set-up: species or system Bacteria
[3] = Binding affinity to Pseudomonas aeruginosa beta-lactamase IMP-1 expressed in Escherichia coli Lemo21(DE3) assessed as inhibition constant using nitrocefin as substrate by spectrophotometric assay
[4] = Binding affinity to bacterial beta-lactamase VIM-1 expressed in Escherichia coli BL21 (DE3) assessed as inhibition constant using nitrocefin as substrate by spectrophotometric assay; set-up: species or system Bacteria
[5] = Binding affinity to recombinant full-length bacterial beta-lactamase KPC-2 assessed as inhibition constant using nitrocefin as substrate by spectrophotometric assay; set-up: species or system Bacteria
[6] = Inhibition of recombinant bacterial beta-lactamase TEM-1 SBL (24 to 286 residues) expressed in Escherichia coli Transetta (DE3) using FC-1 as substrate preincubated for 4 hrs followed by substrate addition measured every 60 secs by fluorescence based assay; set-up: species or system Bacteria
[7] = Inhibition of recombinant bacterial beta-lactamase VIM-2 MBL (27 to 266 residues) expressed in Escherichia coli Transetta (DE3) using FC-1 as substrate preincubated for 10 mins followed by substrate addition measured every 60 secs by fluorescence based assay; set-up: species or system Bacteria
[8] = Inhibition of recombinant bacterial beta-lactamase NDM-1 MBL (1 to 270 residues) expressed in Escherichia coli Transetta (DE3) using FC-1 as substrate preincubated for 10 mins followed by substrate addition measured every 60 secs by fluorescence based assay; set-up: species or system Bacteria
[9] = system: Bacteria; assay: Inhibition of recombinant bacterial beta-lactamase […] (28 to 270 residues) at 200 uM using CENTA substrate by colorimetric assay relative to control
[10] = system: Bacteria; assay: Inhibition of bacterial beta-lactamase CTX-M-15 at 200 uM CENTA substrate by colorimetric assay relative to control
[11] = system: Bacteria; assay: Inhibition of bacterial beta-lactamase KPC-2 at 200 uM using CENTA substrate by colorimetric assay relative to control
[12] = system: Bacteria; assay: Inhibition of bacterial beta-lactamase AmpC at 200 uM using CENTA substrate by colorimetric assay relative to control
[13] = system: Bacteria; assay: Inhibition of recombinant bacterial beta-lactamase VIM-2 (26 to 266 residues) expressed in Escherichia coli Lemo21(DE3) at 200 uM using CENTA substrate by colorimetric assay relative to control
[14] = Inhibition of recombinant bacterial beta-lactamase […] (28 to 270 residues) assessed as inhibition constant using imipenem as substrate by spectrophotometric assay; set-up: species or system Bacteria
[15] = Inhibition of bacterial beta-lactamase CTX-M-15 assessed as inhibition constant using cephalothin as substrate by spectrophotometric assay; set-up: species or system Bacteria
[16] = Inhibition of bacterial beta-lactamase KPC-2 using nitrocefin as substrate incubated for 10 mins and measured every 10 seconds for 10 mins; set-up: species or system Bacteria
[17] = Inhibition of bacterial beta-lactamase VIM-1 using nitrocefin as substrate incubated for 10 mins followed by substrate addition measured every 10 seconds for 10 mins; set-up: species or system Bacteria
[18] = Inhibition of bacterial beta-lactamase CTX-M-15 using nitrocefin as substrate incubated for 10 mins and measured every 10 seconds for 10 mins; set-up: species or system Bacteria
[19] = Inhibition of bacterial beta-lactamase P99 using nitrocefin as substrate incubated for 10 mins and measured every 10 seconds for 10 mins; set-up: species or system Bacteria
[20] = Inhibition of bacterial beta-lactamase SHV-12 using nitrocefin as substrate incubated for 10 mins and measured every 10 seconds for 10 mins; set-up: species or system Bacteria
[21] = Inhibition of bacterial beta-lactamase TEM-10 using nitrocefin as substrate incubated for 10 mins and measured every 10 seconds for 10 mins; set-up: species or system Bacteria
[22] = Inhibition of bacterial beta-lactamase IMP-1 using imipenem as substrate incubated for 10 mins followed by substrate addition measured every 30 seconds for 1 hr; set-up: species or system Bacteria
[23] = Inhibition of bacterial beta-lactamase OXA-48 using nitrocefin as substrate incubated for 10 mins and measured every 10 seconds for 10 mins; set-up: species or system Bacteria

- inhibition [9]: 62%
- inhibition [10]: 49%
- inhibition [11]: 46%
- inhibition [12]: < 20%
- inhibition [13]: 81%
SMILES: Sc1nnc(-c2ccco2)n1C1CC1

- inhibition [9]: 54%
- inhibition [10]: 33%
- inhibition [11]: < 20%
- inhibition [12]: < 20%
- inhibition [13]: 87%
SMILES: Sc1nnc(-c2cccnc2)n1CC1CCCO1 (centres undefined)

- inhibition [9]: 71%
- inhibition [10]: 32%
- Ki [14]: 32 µM
- inhibition [11]: 41%
- inhibition [12]: 50%
- Ki [15]: 50 µM
- inhibition [13]: 33%
SMILES: S=C(N/N=C/c1ccccc1)N1CCOCC1

- inhibition [9]: 70%
- inhibition [10]: < 20%
- inhibition [11]: < 20%
- inhibition [12]: 37%
- inhibition [13]: 86%
SMILES: CCn1c(S)nnc1-c1nn(C)c(C)c1Cl

- Ki [5]: 158 µM
SMILES: Sc1nncn1/N=C/c1ccc(Br)cc1
- Ki [3]: 285 µM
- Ki [4]: 58 µM

Continued, molecule first:

SMILES: O=C(Nc1nnn[nH]1)C(Nc1ccccc1)c1ccccc1 (centres undefined)
- Ki [1]: 479 µM
- Ki [2]: 477 µM

SMILES: S=c1[nH]ncn1NCc1ccc2c(c1)OCO2
- Ki [3]: 125 µM
- Ki [4]: 120 µM
- Ki [5]: 138 µM

SMILES: O=P(O)(O)C(c1ccc2ccccc2c1-c1ccccn1)P(=O)(O)O
- IC50 [6]: 1.73 µM
- IC50 [7]: 3.78 µM
- IC50 [8]: 17.1 µM

SMILES: O=C(Nc1nnn[nH]1)c1cc(-c2ccccc2)n(-c2ccccc2)n1
- Ki [1]: 239 µM
- Ki [2]: 56 µM

SMILES: O=C(Nc1nnn[nH]1)C(c1ccccc1)[S+]([O-])c1ccccc1 (centres undefined)
- Ki [1]: 1570 µM
- Ki [2]: 204 µM

SMILES: O=C(Nc1nnn[nH]1)c1cc(-c2ccccc2)nn1-c1ccccc1
- Ki [1]: 44 µM
- Ki [2]: 62 µM

SMILES: O=P(O)(O)C(c1cc2ccccc2n1-c1ncccn1)P(=O)(O)O
- IC50 [6]: 11.5 µM
- IC50 [7]: 5.58 µM
- IC50 [8]: 15 µM

SMILES: S=c1[nH]ncn1/N=C/c1c[nH]c2ccccc12
- Ki [3]: 104 µM
- Ki [4]: 95 µM
- Ki [5]: 139 µM

SMILES: O=P(O)(O)C(c1ccccc1-c1ccccn1)P(=O)(O)O
- IC50 [6]: 68.4 µM
- IC50 [7]: 11.1 µM
- IC50 [8]: 32 µM

SMILES: O=C(O)c1c(F)ccc2c1OB(O)[C@@H]1C[C@H]21 [XERUBORBACTAM]
- IC50 [16]: 2.9 nM
- IC50 [17]: 14 nM
- IC50 [18]: 1.2 nM
- IC50 [19]: 22 nM
- IC50 [20]: 1.9 nM
- IC50 [21]: 2.2 nM
- IC50 [22]: 610 nM
- IC50 [23]: 1.1 nM

SMILES: O=C(NC(=S)NNC(=O)c1cccs1)c1ccc(Br)o1
- inhibition [9]: 79%
- inhibition [10]: 55%
- inhibition [11]: 66%
- inhibition [12]: 32%
- inhibition [13]: 45%

SMILES: CCN(CC)c1ccc(CNn2cn[nH]c2=S)cc1
- Ki [3]: 173 µM
- Ki [4]: 224 µM
- Ki [5]: 263 µM
